Results: US9511134B2, “Inducing immune responses to influenza virus using polypeptide and nucleic acid compositions” (priority 2006, dated 2016)
Read-outs that look alike come from different tables or passages of the source.

Test system: CD4+ PBMC
Type: cell-based, human
Conditions: for Human influenza epitope-specific immune response, donor 3501: PBMC rested five days
[1] = IFNγ ELISPOT, five day expansion with peptide pool, CD8-depleted

## CSCC[C@H](NC(=O)CNC(=O)[C@H](CCSC)NC(=O)[C@@H](N)CCSC)C(=O)N[C@@H](Cc1ccccc1)C(=O)N[C@@H](CC(N)=O)C(=O)N[C@@H](CCSC)C(=O)N[C@@H](CC(C)C)C(=O)N[C@@H](CO)C(=O)N[C@H](C(=O)N[C@H](C(=O)N[C@@H](CC(C)C)C(=O)NCC(=O)N[C@H](C(=O)N[C@@H](CO)C(=O)O)C(C)C)C(C)C)[C@@H](C)O [Flu.PB1.411]
IFNγ ELISPOT, CD8-depleted
  Human influenza epitope-specific immune response, donor 3501: Positive (Donors were considered positive for a peptide if the number of spots was over 3 times background as determined by responses to irrelevant peptides (non influenza))
[1]
  Human influenza epitope-specific immune response, donor 716: Positive (Donors were considered positive for a peptide if the number of spots was over 3 times background as determined by responses to irrelevant peptides (non influenza))
  Human influenza epitope-specific immune response, donor 753: Positive (Donors were considered positive for a peptide if the number of spots was over 3 times background as determined by responses to irrelevant peptides (non influenza))
  Human influenza epitope-specific immune response, donor 6018: Positive (Donors were considered positive for a peptide if the number of spots was over 3 times background as determined by responses to irrelevant peptides (non influenza))

## CC[C@H](C)[C@H](NC(=O)[C@H](CCC(=O)O)NC(=O)[C@H](CCCNC(=N)N)NC(=O)[C@H](CCCCN)NC(=O)[C@H](CC(C)C)NC(=O)[C@H](CCCCN)NC(=O)[C@H](CCCNC(=N)N)NC(=O)[C@@H](N)Cc1ccc(O)cc1)C(=O)N[C@H](C(=O)N[C@@H](Cc1ccccc1)C(=O)N[C@@H](Cc1c[nH]cn1)C(=O)NCC(=O)N[C@@H](C)C(=O)N[C@@H](CCCCN)C(=O)N[C@@H](CCC(=O)O)C(=O)O)[C@@H](C)O [Flu.M1.103]
[1]
  Human influenza epitope-specific immune response, donor 716: Positive (Donors were considered positive for a peptide if the number of spots was over 3 times background as determined by responses to irrelevant peptides (non influenza))
  Human influenza epitope-specific immune response, donor AC08: Positive (Donors were considered positive for a peptide if the number of spots was over 3 times background as determined by responses to irrelevant peptides (non influenza))

## CC[C@H](C)[C@H](NC(=O)CNC(=O)[C@@H](N)CCCCN)C(=O)N[C@@H](CC(C)C)C(=O)NCC(=O)N[C@@H](Cc1ccccc1)C(=O)N[C@H](C(=O)N[C@@H](Cc1ccccc1)C(=O)N[C@H](C(=O)N[C@@H](CC(C)C)C(=O)N[C@H](C(=O)N[C@H](C(=O)N1CCC[C@H]1C(=O)N[C@@H](CO)C(=O)N[C@@H](CCC(=O)O)C(=O)O)C(C)C)[C@@H](C)O)[C@@H](C)O)C(C)C [Flu.M1.60]
  Human influenza epitope-specific immune response, donor 753: Positive (key: Positive: Donors were considered positive for a peptide if the number of spots was over 3 times background as determined by responses to irrelevant peptides (non influenza))
  Human influenza epitope-specific immune response, donor 6018: Positive (key: Positive: Donors were considered positive for a peptide if the number of spots was over 3 times background as determined by responses to irrelevant peptides (non influenza))
  Human influenza epitope-specific immune response, donor AC02: Positive (key: Positive: Donors were considered positive for a peptide if the number of spots was over 3 times background as determined by responses to irrelevant peptides (non influenza))
  Human influenza epitope-specific immune response, donor AC08: Positive (key: Positive: Donors were considered positive for a peptide if the number of spots was over 3 times background as determined by responses to irrelevant peptides (non influenza))

## CC[C@H](C)[C@H](NC(=O)[C@H](CC(C)C)NC(=O)[C@H](C)NC(=O)[C@H](CO)NC(=O)[C@H](CCCNC(=N)N)NC(=O)[C@H](C)NC(=O)[C@H](CC(C)C)NC(=O)[C@H](Cc1ccccc1)NC(=O)[C@@H](NC(=O)[C@H](CC(C)C)NC(=O)[C@@H](N)CC(=O)O)[C@@H](C)CC)C(=O)N[C@@H](CC(C)C)C(=O)N[C@@H](CCCNC(=N)N)C(=O)NCC(=O)N[C@@H](CO)C(=O)O [Flu.NP.258]
[1]
  Human influenza epitope-specific immune response, donor 6018: Positive (Donors were considered positive for a peptide if the number of spots was over 3 times background as determined by responses to irrelevant peptides (non influenza))

## CC[C@H](C)[C@H](NC(=O)CNC(=O)[C@H](CCC(=O)O)NC(=O)[C@H](Cc1c[nH]cn1)NC(=O)[C@H](CC(N)=O)NC(=O)[C@@H]1CCCN1C(=O)[C@H](C)NC(=O)[C@H](CC(N)=O)NC(=O)[C@@H](NC(=O)[C@@H](NC(=O)[C@H](CC(C)C)NC(=O)[C@H](C)NC(=O)[C@H](Cc1ccccc1)NC(=O)[C@@H](N)CC(=O)O)[C@@H](C)CC)C(C)C)C(=O)N[C@@H](CCC(N)=O)C(=O)O [Flu.PB1.449]
IFNγ ELISPOT, CD8-depleted
  Human influenza epitope-specific immune response, donor 3501: Positive (Donors were considered positive for a peptide if the number of spots was over 3 times background as determined by responses to irrelevant peptides (non influenza))

## CSCC[C@H](NC(=O)[C@H](C)NC(=O)[C@H](CCC(N)=O)NC(=O)[C@@H](NC(=O)[C@H](CCSC)NC(=O)[C@H](CCC(N)=O)NC(=O)[C@H](CCCNC(=N)N)NC(=O)[C@H](C)NC(=O)[C@H](CCC(N)=O)NC(=O)[C@H](CO)NC(=O)[C@H](C)NC(=O)[C@@H](NC(=O)[C@H](CCC(=O)O)NC(=O)[C@H](CCSC)NC(=O)[C@H](C)N)C(C)C)C(C)C)C(=O)O [Flu.M1.205]
[1]
  Human influenza epitope-specific immune response, donor 6018: Positive (Donors were considered positive for a peptide if the number of spots was over 3 times background as determined by responses to irrelevant peptides (non influenza))
  Human influenza epitope-specific immune response, donor AC02: Positive (Donors were considered positive for a peptide if the number of spots was over 3 times background as determined by responses to irrelevant peptides (non influenza))

## CC[C@H](C)[C@H](NC(=O)[C@H](CCC(N)=O)NC(=O)CNC(=O)[C@H](C)N)C(=O)N[C@@H](CO)C(=O)N[C@H](C(=O)N[C@@H](CCC(N)=O)C(=O)N1CCC[C@H]1C(=O)N[C@H](C(=O)N[C@@H](Cc1ccccc1)C(=O)N[C@@H](CO)C(=O)N[C@H](C(=O)N[C@@H](CCC(N)=O)C(=O)N[C@@H](CCCNC(=N)N)C(=O)N[C@@H](CC(N)=O)C(=O)O)C(C)C)[C@@H](C)O)C(C)C [Flu.NP.406]
IFNγ ELISPOT, CD8-depleted
  Human influenza epitope-specific immune response, donor 3501: Positive (Donors were considered positive for a peptide if the number of spots was over 3 times background as determined by responses to irrelevant peptides (non influenza))

## CC[C@H](C)[C@H](NC(=O)[C@H](CC(C)C)NC(=O)[C@H](CCC(=O)O)NC(=O)[C@H](CCSC)NC(=O)[C@@H](NC(=O)[C@H](CCSC)NC(=O)[C@@H](NC(=O)CNC(=O)[C@@H](N)C(C)C)[C@@H](C)O)C(C)C)C(=O)N[C@@H](CCCNC(=N)N)C(=O)N[C@@H](CCSC)C(=O)N[C@H](C(=O)N[C@@H](CCCCN)C(=O)N[C@@H](CCCNC(=N)N)C(=O)NCC(=O)O)[C@@H](C)CC [Flu.NP.189]
[1]
  Human influenza epitope-specific immune response, donor 753: Positive (Donors were considered positive for a peptide if the number of spots was over 3 times background as determined by responses to irrelevant peptides (non influenza))
  Human influenza epitope-specific immune response, donor 6018: Positive (Donors were considered positive for a peptide if the number of spots was over 3 times background as determined by responses to irrelevant peptides (non influenza))
  Human influenza epitope-specific immune response, donor AC08: Positive (Donors were considered positive for a peptide if the number of spots was over 3 times background as determined by responses to irrelevant peptides (non influenza))

## CSCC[C@H](NC(=O)[C@H](Cc1c[nH]c2ccccc12)NC(=O)[C@@H](NC(=O)[C@H](CC(C)C)NC(=O)[C@H](CCC(N)=O)NC(=O)[C@H](CO)NC(=O)[C@@H](N)CCCCN)C(C)C)C(=O)N[C@@H](C)C(=O)N[C@@H](CS)C(=O)N[C@@H](Cc1c[nH]cn1)C(=O)N[C@@H](CO)C(=O)N[C@@H](C)C(=O)N[C@@H](C)C(=O)N[C@@H](Cc1ccccc1)C(=O)N[C@@H](CCC(=O)O)C(=O)O [Flu.NF.328]
[1]
  Human influenza epitope-specific immune response, donor 753: Positive (Donors were considered positive for a peptide if the number of spots was over 3 times background as determined by responses to irrelevant peptides (non influenza))

## CC[C@H](C)[C@H](NC(=O)[C@H](CC(C)C)NC(=O)[C@@H]1CCCN1C(=O)[C@@H](N)CC(N)=O)C(=O)N[C@@H](CCCNC(=N)N)C(=O)N[C@@H](Cc1c[nH]cn1)C(=O)N[C@@H](CCC(=O)O)C(=O)N[C@@H](CC(N)=O)C(=O)N[C@@H](CCCNC(=N)N)C(=O)N[C@@H](CCSC)C(=O)N[C@H](C(=O)N[C@@H](CC(C)C)C(=O)N[C@@H](C)C(=O)N[C@@H](CO)C(=O)N[C@H](C(=O)O)[C@@H](C)O)C(C)C [Flu.M1.173]
[1]
  Human influenza epitope-specific immune response, donor AC02: Positive (Donors were considered positive for a peptide if the number of spots was over 3 times background as determined by responses to irrelevant peptides (non influenza))

## CSCC[C@H](NC(=O)[C@H](CO)NC(=O)[C@H](Cc1ccccc1)NC(=O)[C@H](CC(N)=O)NC(=O)[C@H](C)NC(=O)[C@@H](NC(=O)[C@H](Cc1ccccc1)NC(=O)CNC(=O)[C@@H](N)Cc1ccc(O)cc1)C(C)C)C(=O)N[C@@H](CCC(=O)O)C(=O)N[C@@H](CC(C)C)C(=O)N1CCC[C@H]1C(=O)N[C@@H](CO)C(=O)N[C@@H](Cc1ccccc1)C(=O)NCC(=O)O [Flu.PB1.502]
IFNγ ELISPOT, CD8-depleted
  Human influenza epitope-specific immune response, donor 3501: Positive (Donors were considered positive for a peptide if the number of spots was over 3 times background as determined by responses to irrelevant peptides (non influenza))
